Measurements as given in patent publication US9567636B2, “Use of HLA-B*1301 allele” (Shandong Provincial Institute of Dermatology and Venereology, priority 2012, dated 2017).
Where two headings read alike, the source gives them in different places.

What was measured:
HLA-B*1301 allele [1] = details: both, human, in vivo
From the text: The samples were peripheral blood taken from human, including case samples, clinical control samples and healthy control samples.
76 Chinese DHS patients (39 for the discovery-phase study, and 37 for the validation-phase study) were included in the study. […] The male-to-female ratio in the patients, aged 38 years old in average, was 1.6:1. […] The diagnosis of DHS was based on the medical history, clinical manifestations and laboratory examinations of the patients.
The clinical control samples of the study included 1034 non-DHS patients (833 for the discovery phase, and 201 for the validation phase).
Genotyping was performed on 39 DHS patients in the case samples and 833 non-DHS patients in the clinical control samples using Illumina-660 chip (Illumina Human 660W-Quad beadchip). A total of 430,276 SNPs from the 39 DHS patients and 833 non-DHS patients were used in data analysis in the discovery phase of Genome-Wide Scan. […]

[2] = both, human, in vivo
From the text: 76 Chinese DHS patients (39 for the discovery-phase study, and 37 for the validation-phase study) were included in the study. […] The diagnosis of DHS was based on the medical history, clinical manifestations and laboratory examinations of the patients.

HLA-B*1301 allele [3] = details: human, in vivo
Protocol: To further verify the correlation of HLA-B*1301 allele, the 454 sequencing platform (Genome Sequencer FLX system developed by Roche 454 Life Sciences) was employed to conduct HLA sorting on another 37 DHS patients in the case samples and another 201 non-DHS patients in the clinical control samples (randomizedly selected from a total of 1089 validation controls). Wherein, PCR amplification was conducted on genomic DNA isolated from the peripheral blood of the samples for the HLA-B*1301 allele using primer pair 1 and primer pair 2, respectively. The primer pair 1 consists of the single-stranded DNA as set forth in SEQ ID No.1 and SEQ ID No.2; and the primer pair 2 consists of the single-stranded DNA as set forth in SEQ ID No.3 and SEQ ID No.4.

HLA-B*1301 allele [4] = details: human, in vivo; remark: listed apart in the source
From the text: The 454 sequencing platform (Genome Sequencer FLX system developed by Roche 454 Life Sciences) was employed to conduct HLA sorting on 76 DHS patients in the case samples and 1034 non-DHS patients in the clinical control samples, and the sorting results are shown in Table 1.
The HLA-B*1301 heterozygous carriers were at a risk of DHS of ORhet=61×886/10×144=37.53 (confidence level, 0.95; confidence interval (18.80, 74.94)); the HLA-B*1301 homozygous carriers were at a risk of DHS of ORhom=5×886/10×4=110.75 (confidence level, 0.95; confidence interval (25.85, 474.54)).
A recent review regarding the Asian population deduced that the prevalence rate of DHS was 1.4% (Lorenz, Wozel et al. 2012). Based on this prevalence rate, the positive predictive value was 7.9%, the negative predictive value was 99.8%, the positive likelihood ratio was 6.07, and the negative likelihood ratio was 0.1536, upon calculation. According to the positive likelihood ratio of 6.07, the risk of DHS in individuals with the HLA-B*1301 will be raised to 7.9%; and according to the negative likelihood ratio of 0.1536, the incidence of DHS in individuals […] will be decreased from 1.4% to 0.2%.

Nc1ccc(S(=O)(=O)c2ccc(N)cc2)cc1 [DDS, 4,4′-diamino diphenyl sulfone]
OR of DHS for HLA-B*1301 (HLA-B*1301 allele [1]): 21.67
patients abnormally increased in the level of serum bilirubin [2]: 35 patients
patients decreased in the level of hemoglobin [2]: 37 patients
patients significantly increased in the level of alanine transaminase [2]: 58 patients
patients significantly increased in the level of aspartate aminotransferase [2]: 49 patients
skin lesion: exfoliative dermatitis [2]: 38.5%
skin lesion: maculopapule [2]: 57.7%
skin lesion: scarlatiniform erythema [2]: 7.7%
system involvement: abnormal liver function [2]: 74.4%
system involvement: fever [2]: 83.1%
system involvement: swollen lymph glands [2]: 34.6%
skin lesion: oral erosion ([2]; po): 1.3%
OR of DHS for HLA-B*1301 (HLA-B*1301 allele [3]): 23.54
HLA-B*1301 allele carried by DHS patients (HLA-B*1301 allele [4]): 86.8%
HLA-B*1301 allele carried by non-DHS patients (HLA-B*1301 allele [4]): 14.3%
risk of DHS in individuals with the HLA-B*1301 (HLA-B*1301 allele [4]): 7.9%
